Tests used:
[1] = test system: Contingent Negative Variation (CNV), electric potential of the brain; assay: Contingent Negative Variation (CNV) measurement while inhaling the aroma sample; type: in vivo, human; details: for Stimulative or sedative effect by CNV (FIG. 1): 1% ethanol solution of each sample, 5 healthy adult women, over 100% of CNV = stimulative, less than 100% = sedative
Description: First of all, the test method of this invention is explained. The change of negative electric potential of brain called Contingent Negative Variation (CNV) was measured. CNV is the gradual fluctuation of electric potential of the brain. It is related to the fluctuation of the mental process and the conscious level such as an attention, expectation and anticipation.
An experiment to study perfume effects was as follows. After two seconds from a warning sound stimulation, a starting signal light of an exercise is turned on. Then, as soon as light is observed, the pushing button behavior is demanded as exercise reaction. In this series of steps, a sample of aroma is located at 10cm before nose tip. The aroma can be always recognized along with breathing. A recording electrode for the CNV measurement is fixed to the frontal region of the head. An electric potential between the frontal region and ear lobe is measured.
The fluctuation area of this section is expressed as comparative percentage (%) to 100% of blank (odorless stimulation). Also, aroma was presented in accordance with Latin square method.

[2] = test system: Contingent Negative Variation (CNV), electric potential of the brain; details: administered drug; reported in the literature; cited from earlier work

Row | Compound | Stimulative or sedative effect by CNV (FIG. 1) [1] | Change of amplitude of CNV after administration [2] | other results
1 | CC=Cc1ccc(OC)cc1 [anethole] |  |  | Measured value of CNV ([1]; ethanol solution including 1 wt % of each sample, % relative to 100% of blank (odorless stimulation)): 108%
2 | COc1ccc(C=O)cc1 [anisaldehyde, p-methoxy benzaldehyde] | much stronger stimulative effect in comparison with conventional lemon oil |  | Effective amount of anisaldehyde in the perfume ingredients ([1]; concluded from Table 2 (anisaldehyde in anethole)): ≥ 1 wt %
3 | COc1cc(C)cc(OC)c1 [DMB, 1,3-dimethoxy-5-methylbenzene] | sedative effect |  | 
4 | O=C1CN=C(c2ccccc2)c2cc([N+](=O)[O-])ccc2N1 [nitrazepam] |  | decrease of amplitude of CNV | 
5 | Cn1c(=O)c2c(ncn2C)n(C)c1=O [caffeine] |  | increase of amplitude of CNV | 

Source: patent US20030069166A1, “Stimulative agent and stimulative perfume composition” (Shiseido Co., Ltd., priority 1999, published 2003)
